From patent US9505762B2, “Purine derivatives as CB2 receptor agonists” (Hoffmann-La Roche Inc., priority 2013, dated 2016)

Tests used:
[1] = target: human CB2 receptors (Homo sapiens (Human), UniProt P34972); assay: functional cAMP assay, CB2; assay type: cell-based; details: CHO cells expressing human CB2
[2] = target: human CB1 receptors (Homo sapiens (Human), UniProt P21554); assay: functional cAMP assay, CB1; assay type: cell-based; details: CHO cells expressing human CB1
human CB1 receptors, sequence (P21554 whole entry): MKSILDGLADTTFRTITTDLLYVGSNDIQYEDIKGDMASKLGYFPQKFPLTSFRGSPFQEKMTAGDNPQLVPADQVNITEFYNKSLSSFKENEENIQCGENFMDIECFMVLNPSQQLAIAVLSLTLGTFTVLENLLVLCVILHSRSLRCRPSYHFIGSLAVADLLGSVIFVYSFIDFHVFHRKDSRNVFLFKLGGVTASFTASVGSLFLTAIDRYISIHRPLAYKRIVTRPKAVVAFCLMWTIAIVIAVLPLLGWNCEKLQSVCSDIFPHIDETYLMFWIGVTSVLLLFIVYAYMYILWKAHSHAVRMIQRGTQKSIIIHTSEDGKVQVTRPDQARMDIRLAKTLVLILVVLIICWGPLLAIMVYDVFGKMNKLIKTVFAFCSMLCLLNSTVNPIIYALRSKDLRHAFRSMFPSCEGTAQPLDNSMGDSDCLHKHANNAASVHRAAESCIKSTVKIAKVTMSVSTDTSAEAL

human CB2 receptors, sequence (P34972 whole entry): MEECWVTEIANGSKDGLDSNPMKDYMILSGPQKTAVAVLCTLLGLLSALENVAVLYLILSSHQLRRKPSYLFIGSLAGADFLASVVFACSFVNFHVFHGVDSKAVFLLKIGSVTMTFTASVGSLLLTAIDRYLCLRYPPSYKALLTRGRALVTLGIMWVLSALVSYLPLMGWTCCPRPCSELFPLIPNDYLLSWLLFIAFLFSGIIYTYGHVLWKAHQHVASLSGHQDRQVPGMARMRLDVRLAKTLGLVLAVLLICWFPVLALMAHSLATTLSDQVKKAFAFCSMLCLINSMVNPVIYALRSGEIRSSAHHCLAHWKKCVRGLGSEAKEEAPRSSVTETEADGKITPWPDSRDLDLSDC

SMILES | EC50 [1] [nM] | EC50 [2] [nM]
COCCn1cnc2c(N3CC[C@H](O)C3)nc(C(C)(C)C)nc21 [Example 94, (3S)-1-[2-tert-butyl-9-(2-methoxyethyl)purin-6-yl]pyrrolidin-3-ol] | 440 | > 10000
Cn1nnnc1Cn1cnc2c(N3CC[C@H](O)C3)nc(C(C)(C)C)nc21 [Example 95, (3S)-1-[2-tert-butyl-9-[(1-methyltetrazol-5-yl)methyl]purin-6-yl]pyrrolidin-3-ol] | 363 | > 10000
Cc1nonc1Cn1cnc2c(N3CC[C@H](O)C3)nc(C(C)(C)C)nc21 [Example 96, (3S)-1-[2-tert-butyl-9-[(4-methyl-1,2,5-oxadiazol-3-yl)methyl]purin-6-yl]pyrrolidin-3-ol] | 14.8 | > 10000
CC(C)(C)c1nc(N2CC[C@H](O)C2)c2ncn(Cc3ccccc3Cl)c2n1 [Example 97, (3S)-1-[2-tert-butyl-9-[(2-chlorophenyl)methyl]purin-6-yl]pyrrolidin-3-ol] | 1.8 | > 10000
CC(C)(C)c1nc(N2CC[C@H](O)C2)c2ncn(Cc3c[nH]nc3C(F)(F)F)c2n1 [Example 98, (3S)-1-[2-tert-butyl-9-[[3-(trifluoromethyl)-1H-pyrazol-4-yl]methyl]purin-6-yl]pyrrolidin-3-ol] | 22.3 | > 10000
CC(C)(C)c1nc(N2CC[C@H](O)C2)c2ncn(CCC(F)(F)F)c2n1 [Example 99, (3S)-1-[2-tert-butyl-9-(3,3,3-trifluoropropyl)purin-6-yl]pyrrolidin-3-ol] | 228 | > 10000
CC(C)(C)c1nc(N2CC[C@H](O)C2)c2ncn(Cc3n[nH]cc3C(F)(F)F)c2n1 [Example 100, (3S)-1-[2-tert-butyl-9-[[4-(trifluoromethyl)-1H-pyrazol-3-yl]methyl]purin-6-yl]pyrrolidin-3-ol] | 6.6 | > 10000
Cc1noc(Cn2cnc3c(N4CC[C@H](O)C4)nc(C(C)(C)C)nc32)n1 [Example 101, (3S)-1-[2-tert-butyl-9-[(3-methyl-1,2,4-oxadiazol-5-yl)methyl]purin-6-yl]pyrrolidin-3-ol] | 370 | > 10000
CC1(O)CCN(c2nc(C(C)(C)C)nc3c2ncn3CCC(F)(F)F)C1 (stereo not shown) [Example 102, 1-[2-tert-butyl-9-(3,3,3-trifluoropropyl)purin-6-yl]-3-methylpyrrolidin-3-ol] | 135 | > 10000
CC(=O)N[C@H]1CCN(c2nc(C(C)(C)C)nc3c2ncn3CCC(F)(F)F)C1 [Example 103, N-[(3S)-1-[2-tert-butyl-9-(3,3,3-trifluoropropyl)purin-6-yl]pyrrolidin-3-yl]acetamide] | 211 | > 10000
CC(C)(C)c1nc(N2CCC3(COC3)C2)c2ncn(Cc3ncccc3Cl)c2n1 [Example 104, 7-[2-tert-butyl-9-[(3-chloropyridin-2-yl)methyl]purin-6-yl]-2-oxa-7-azaspiro[3.4]octane] | 160 | > 10000
CC(C)(C)c1nc(N2CC(F)(F)C(F)(F)C2)c2ncn(Cc3ccccc3C(F)(F)F)c2n1 [Example 105, 2-tert-butyl-6-(3,3,4,4-tetrafluoropyrrolidin-1-yl)-9-[[2-(trifluoromethyl)phenyl]methyl]purine] | 8.9 | > 10000
CC(C)(C)c1nc(N2CC(F)(F)C(F)(F)C2)c2ncn(Cc3ccccc3S(C)(=O)=O)c2n1 [Example 106, 2-tert-butyl-9-[(2-methylsulfonylphenyl)methyl]-6-(3,3,4,4-tetrafluoropyrrolidin-1-yl)purine] | 39.9 | > 10000
CC(C)(C)Nc1nc(N2CCC(F)(F)C2)c2ncn(Cc3ccccc3Cl)c2n1 [Example 107, N-tert-butyl-9-[(2-chlorophenyl)methyl]-6-(3,3-difluoropyrrolidin-1-yl)purin-2-amine] | 8.1 | > 10000
CC(C)(C)Nc1nc(N2CCC(F)(F)C2)c2ncn(Cc3ccccc3C(F)(F)F)c2n1 [Example 108, N-tert-butyl-6-(3,3-difluoropyrrolidin-1-yl)-9-[[2-(trifluoromethyl)phenyl]methyl]purin-2-amine] | 6.7 | > 10000
CC(C)(C)Nc1nc(N2CCC(F)(F)C2)c2ncn(CCC(F)(F)F)c2n1 [Example 110, N-tert-butyl-6-(3,3-difluoropyrrolidin-1-yl)-9-(3,3,3-trifluoropropyl)purin-2-amine] | 18.3 | > 10000
Cc1nonc1Cn1cnc2c(N3CCC(F)(F)C3)nc(NC(C)(C)C)nc21 [Example 111, N-tert-butyl-6-(3,3-difluoropyrrolidin-1-yl)-9-[(4-methyl-1,2,5-oxadiazol-3-yl)methyl]purin-2-amine] | 14.7 | > 10000
CC(C)(C)Nc1nc(N2CCC(F)(F)C2)c2ncn(Cc3ncccc3Cl)c2n1 [Example 112, N-tert-butyl-9-[(3-chloropyridin-2-yl)methyl]-6-(3,3-difluoropyrrolidin-1-yl)purin-2-amine] | 7.9 | > 10000
Cn1nnnc1Cn1cnc2c(N3CCC(F)(F)C3)nc(NC(C)(C)C)nc21 [Example 113, N-tert-butyl-6-(3,3-difluoropyrrolidin-1-yl)-9-[(1-methyltetrazol-5-yl)methyl]purin-2-amine] | 249 | > 10000
CC(C)(C)Nc1nc(N2CCC(F)(F)C2)c2ncn(Cc3ccccc3S(C)(=O)=O)c2n1 [Example 114, N-tert-butyl-6-(3,3-difluoropyrrolidin-1-yl)-9-[(2-methylsulfonylphenyl)methyl]purin-2-amine] | 45.5 | > 10000
Cc1noc(Cn2cnc3c(N4CCC(F)(F)C4)nc(NC(C)(C)C)nc32)n1 [Example 115, N-tert-butyl-6-(3,3-difluoropyrrolidin-1-yl)-9-[(3-methyl-1,2,4-oxadiazol-5-yl)methyl]purin-2-amine] | 195 | > 10000
CC(C)(C)Nc1nc(N2CC[C@H](O)C2)c2ncn(Cc3ccccc3Cl)c2n1 [Example 116, (3S)-1-[2-(tert-butylamino)-9-[(2-chlorophenyl)methyl]purin-6-yl]pyrrolidin-3-ol] | 12.1 | > 10000
CC(C)(C)Nc1nc(N2CC[C@H](O)C2)c2ncn(Cc3ccccc3C(F)(F)F)c2n1 [Example 117, (3S)-1-[2-(tert-butylamino)-9-[[2-(trifluoromethyl)phenyl]methyl]purin-6-yl]pyrrolidin-3-ol] | 7.2 | > 10000
CC(C)(C)Nc1nc(N2CC[C@H](O)C2)c2ncn(Cc3ncccc3Cl)c2n1 [Example 118, (3S)-1-[2-(tert-butylamino)-9-[(3-chloropyridin-2-yl)methyl]purin-6-yl]pyrrolidin-3-ol] | 152 | > 10000
Cc1nonc1Cn1cnc2c(N3CC[C@H](O)C3)nc(NC(C)(C)C)nc21 [Example 119, (3S)-1-[2-(tert-butylamino)-9-[(4-methyl-1,2,5-oxadiazol-3-yl)methyl]purin-6-yl]pyrrolidin-3-ol] | 149 | > 10000
CC1(O)CCN(c2nc(NC(C)(C)C)nc3c2ncn3Cc2ccccc2Cl)C1 (stereo not shown) [Example 120, 1-[2-(tert-butylamino)-9-[(2-chlorophenyl)methyl]purin-6-yl]-3-methylpyrrolidin-3-ol] | 108 | > 10000
